Here are results for 2 compounds from publication PMC12473246, “An Improved Ratiometric FRET Biosensor with Higher Affinity for Extracellular ATP” (Sensors (Basel, Switzerland), 2025).

In experiment [1] the target is T1, ecATeam3.10 (Bacillus sp. PS3, UniProt A0A0M5MQR7).
T1 construct: gene uncC; expressed on Neuro2A or HEK293 cells
In words: FRET ratio live-cell imaging dose response. Format: cell-based. As to conditions: read-out: apparent dissociation constant.

Experiment [2] addresses T2, ECATS2 (DM-20) (Bacillus sp. PS3, UniProt A0A0M5MQR7, R103A/R115A).
T2 construct: gene uncC; double-mutant epsilon subunit between mseCFP and mVenus, 20 nm alpha-helical ER/K linker to PDGFR transmembrane domain
In words: FRET ratio live-cell imaging dose response. Type of experiment: cell-based.

Read-outs that look alike come from different tables or passages of the source.

T2 sequence (A0A0M5MQR7 1-133, stated change not applied): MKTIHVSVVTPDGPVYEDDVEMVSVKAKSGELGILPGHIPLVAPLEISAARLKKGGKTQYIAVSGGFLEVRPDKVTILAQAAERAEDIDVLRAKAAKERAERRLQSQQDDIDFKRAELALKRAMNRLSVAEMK
T1 sequence (A0A0M5MQR7 1-133): as the sequence (A0A0M5MQR7 1-133, stated change not applied) above

For `Nc1ncnc2c1ncn2[C@@H]1O[C@H](COP(=O)(O)OP(=O)(O)OP(=O)(O)O)[C@@H](O)[C@H]1O` [ATP], the Kd was determined as 12 ± 5 µM in experiment [1] and 3.7 ± 0.6 µM in experiment [2] (read-out: apparent dissociation constant). For the compound `Nc1ncnc2c1ncn2[C@@H]1O[C@H](COP(=O)(O)OP(=O)(O)O)[C@@H](O)[C@H]1O` [ADP], the Kd in experiment [2] (read-out: apparent ADP dissociation constant) is approximately 100 µM.
